Measurements reported in US5340727A, “GPIbα fragments and recombinant DNA expression vectors” (The Scripps Research Institute, priority 1990, dated 1994).
Where no end group is shown, it is not given here.

Key:
vWF-GPIb interaction [1] = target: T1, vWF-GPIb interaction (Homo sapiens, UniProt P04275+P07359); assay: Ristocetin-induced binding of 125I-labeled vWF to fresh or formalin-fixed platelets; conditions: peptides tested individually; read-out: IC50, inhibition of binding of vWF to the GPIb of platelets by synthetic peptides
T1 construct: endogenous in cells; host or cells: fresh or formalin-fixed platelets
T1 sequence (P07359 17-652): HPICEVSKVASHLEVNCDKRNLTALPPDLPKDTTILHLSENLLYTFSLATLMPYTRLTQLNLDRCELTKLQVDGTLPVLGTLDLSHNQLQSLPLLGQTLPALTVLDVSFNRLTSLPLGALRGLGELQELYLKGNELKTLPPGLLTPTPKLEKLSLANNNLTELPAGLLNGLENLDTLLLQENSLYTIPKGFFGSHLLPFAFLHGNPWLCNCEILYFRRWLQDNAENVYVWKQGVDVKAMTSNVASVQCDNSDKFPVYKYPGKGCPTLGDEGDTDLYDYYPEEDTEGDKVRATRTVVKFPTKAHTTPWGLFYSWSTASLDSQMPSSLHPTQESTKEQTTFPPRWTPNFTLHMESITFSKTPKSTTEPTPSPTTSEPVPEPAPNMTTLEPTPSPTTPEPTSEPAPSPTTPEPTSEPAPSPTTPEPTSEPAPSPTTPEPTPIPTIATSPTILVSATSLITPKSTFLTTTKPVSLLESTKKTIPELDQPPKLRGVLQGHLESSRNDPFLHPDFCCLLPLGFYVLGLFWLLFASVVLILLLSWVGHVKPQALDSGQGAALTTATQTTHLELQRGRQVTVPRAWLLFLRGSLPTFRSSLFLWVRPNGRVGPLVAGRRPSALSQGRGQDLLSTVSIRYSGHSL
T1 sequence (P04275 764-2813 limits assumed): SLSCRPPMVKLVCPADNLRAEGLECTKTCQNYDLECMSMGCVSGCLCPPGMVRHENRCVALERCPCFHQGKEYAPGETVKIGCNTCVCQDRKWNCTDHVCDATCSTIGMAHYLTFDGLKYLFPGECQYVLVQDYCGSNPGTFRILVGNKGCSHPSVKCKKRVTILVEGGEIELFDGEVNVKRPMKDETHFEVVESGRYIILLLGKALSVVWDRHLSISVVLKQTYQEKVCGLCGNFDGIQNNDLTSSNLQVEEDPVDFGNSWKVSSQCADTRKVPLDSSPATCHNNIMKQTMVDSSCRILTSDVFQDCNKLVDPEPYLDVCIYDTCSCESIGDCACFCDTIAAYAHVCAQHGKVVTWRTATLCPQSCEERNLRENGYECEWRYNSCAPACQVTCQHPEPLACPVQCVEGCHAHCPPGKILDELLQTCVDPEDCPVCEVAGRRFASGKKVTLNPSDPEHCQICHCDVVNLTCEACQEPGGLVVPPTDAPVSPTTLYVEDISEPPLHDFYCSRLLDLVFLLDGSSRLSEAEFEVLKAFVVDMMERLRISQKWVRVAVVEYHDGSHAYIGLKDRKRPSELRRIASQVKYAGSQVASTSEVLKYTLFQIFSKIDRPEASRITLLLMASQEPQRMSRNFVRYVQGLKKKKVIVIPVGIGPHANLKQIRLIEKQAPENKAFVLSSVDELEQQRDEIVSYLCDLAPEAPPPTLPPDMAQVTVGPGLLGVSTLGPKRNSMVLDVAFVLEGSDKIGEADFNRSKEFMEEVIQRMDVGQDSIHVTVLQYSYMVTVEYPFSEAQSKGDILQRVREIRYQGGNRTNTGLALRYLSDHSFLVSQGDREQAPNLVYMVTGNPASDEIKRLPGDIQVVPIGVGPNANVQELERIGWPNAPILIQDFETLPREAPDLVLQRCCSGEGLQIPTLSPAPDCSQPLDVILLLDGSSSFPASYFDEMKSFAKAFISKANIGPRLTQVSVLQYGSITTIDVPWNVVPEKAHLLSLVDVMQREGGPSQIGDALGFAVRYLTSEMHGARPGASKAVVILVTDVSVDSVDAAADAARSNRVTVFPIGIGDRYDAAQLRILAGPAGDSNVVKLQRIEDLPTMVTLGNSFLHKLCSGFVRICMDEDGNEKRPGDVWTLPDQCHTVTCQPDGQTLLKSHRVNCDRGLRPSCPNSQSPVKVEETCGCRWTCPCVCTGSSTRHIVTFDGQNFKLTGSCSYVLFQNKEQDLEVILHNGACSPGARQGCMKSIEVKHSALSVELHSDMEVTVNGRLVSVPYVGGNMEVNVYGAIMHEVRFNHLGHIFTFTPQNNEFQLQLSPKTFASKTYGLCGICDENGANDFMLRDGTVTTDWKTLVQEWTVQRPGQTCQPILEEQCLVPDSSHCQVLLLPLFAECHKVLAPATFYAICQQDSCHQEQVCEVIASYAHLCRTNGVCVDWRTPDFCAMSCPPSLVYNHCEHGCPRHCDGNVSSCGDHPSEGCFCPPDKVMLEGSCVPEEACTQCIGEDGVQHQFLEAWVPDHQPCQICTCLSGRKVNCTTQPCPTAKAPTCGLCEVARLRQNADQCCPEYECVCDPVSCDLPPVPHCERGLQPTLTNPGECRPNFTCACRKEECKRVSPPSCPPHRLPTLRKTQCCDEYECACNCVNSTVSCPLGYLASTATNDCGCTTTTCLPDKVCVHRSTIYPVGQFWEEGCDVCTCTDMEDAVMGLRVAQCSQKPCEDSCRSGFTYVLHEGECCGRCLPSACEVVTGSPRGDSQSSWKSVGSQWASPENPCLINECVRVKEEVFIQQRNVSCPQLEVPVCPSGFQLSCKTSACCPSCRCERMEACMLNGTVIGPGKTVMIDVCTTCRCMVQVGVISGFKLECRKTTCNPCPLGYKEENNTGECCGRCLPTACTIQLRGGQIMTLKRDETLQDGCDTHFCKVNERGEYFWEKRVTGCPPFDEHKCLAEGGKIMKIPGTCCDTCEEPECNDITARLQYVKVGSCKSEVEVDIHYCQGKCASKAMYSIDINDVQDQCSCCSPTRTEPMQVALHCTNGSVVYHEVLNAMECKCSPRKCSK
Method: The assay system is based on the use of ^125 I-labeled vWF and fresh or formalin-fixed platelets; ristocetin was used to induce the binding of vWF to GPIb. After incubation for 30 minutes at 37° C., without stirring, separation of bound platelet from free vWF ligand was achieved by centrifugation through 20% sucrose in Tyrode buffer, followed by measurement of the bound radioactivity as described in Ruggeri et al., J. Clin. Invest., 72, 1-12 (1983). Nonspecific binding was evaluated for selected points by measuring the binding in the presence of a 40-fold excess of unlabeled vWF. Binding isotherms were evaluated by Scatchard-type analysis to determine binding parameters (including the estimate of nonspecific binding) using the computer-assisted program "Ligand" as described in Munson, Methods Enzymol., 92, 542-576 (1983).

vWF-GPIb interaction [2] = target: T1, vWF-GPIb interaction; assay: Inhibition of asialo-vWF binding to fresh platelets (Example 2); conditions: 125I-asialo-vWF 5 μg/ml
Method: Fresh platelets were prepared by drawing blood into a solution of 11 mM trisodium citrate and 2 mM EDTA. Platelet-rich plasma was then prepared by differential centrifugation. The platelet count was then adjusted to 1×10^11 /l. Peptides were then added to various concentrations and ^125 I-asialo-vWF was then added at a final concentration of 5 μg/ml. After incubation for 30 minutes at room temperature, bound and free vWF ligand were separated by centrifuging 50 μl of the mixture through 300 μl of 20% sucrose at 12,000 g for 4 minutes. The platelet pellet was then separated from the rest of the mixture to determine platelet-bound radioactivity. Non-specific binding was defined as the residual binding of ^125 I- asialo-vWF in the presence of a 50-fold excess of unlabeled vWF but in the absence of any peptides.
Percent inhibition with a given peptide was calculated by dividing the specific cpm obtained when various concentrations of peptide were added by the specific cpm in the absence of peptide.

vWF-GPIb interaction [3] = target: T1, vWF-GPIb interaction; assay: Inhibition of ristocetin-induced binding of vWF to formalin-fixed platelets (Example 1); conditions: 125I-vWF 5 μg/ml, ristocetin 1.0 mg/ml
Method: To test the inhibitory activity of the peptides of the present invention, formalin-fixed platelets were used at a final concentration of 1×10^11 /l. Assayed peptides were then added at various concentrations. One third final volume of vWF-deficient plasma was then added followed by ^125 I-vWF at a final concentration of 5 μg/ml. Ristocetin was then added at a concentration of 1.0 mg/ml. After incubation for o30 minutes at room temperature, bound and free vWF ligand were separated by centrifuging 50 μl of the mixture through 300 μl of 20% sucrose at 12,000 g for 4 minutes. The platelet pellet was then separated from the rest of the mixture to determine platelet-bound radioactivity. Nonspecific binding was defined as the residual binding of ^125 I-vWF in the presence of a 50-fold excess of unlabeled vWF but in the absence of any peptides.
Percent inhibition with a given peptide was calculated by dividing the specific cpm […].

GPIb-IX = GPIb-IX (Homo sapiens, UniProt P04275); assay: biochemical
GPIb-IX, sequence (P04275 764-2813 limits assumed): as above
Method: (§1) Percent inhibition of binding of vWF to platelets was measured using I^125 labelled vWF prepared according to the methods of Ruggeri et al. See also DeMarco et al., J. Clin. Invest., 68, 321-328 (1981). Binding of vWF to platelets induced by ristocetin and/or botrocetin (and inhibition thereof) was measured according to the method of MacFarlane et al., Thromb. Diath. Haemorrh., 34, 306-308 (1975) which utilizes washed platelets fixed with formaldehyde. […] Each peptide, used at a final concentration of 500 μmol/l with a ^125 I-vWF concentration of 2 μg/ml, is identified by the same numeral used in the top part of the figure.
(§2) Further experiments were performed with a constant ^125 I-vWF concentration of 2 μg/ml and varying peptide concentration, as indicated on the FIG. 2 abscissa. […] One hundred percent binding was that measured in the presence of Hepes buffer instead of peptide.
(§3) Binding inhibition experiments were conducted analogous to those in Example 6 using an I^125 -vWF concentration of 2 μg/ml.

GPIb-IX (Homo sapiens) = target: T2, GPIb-IX (Homo sapiens); assay: Ristocetin-dependent 125I-vWF binding to formaldehyde-fixed washed platelets (Examples 5-7); conditions: 125I-vWF 2 μg/ml; read-out: concentration that inhibits 50% of ristocetin-induced binding of vWF
T2 construct: which utilizes washed platelets fixed with formaldehyde; endogenous in cells; host or cells: washed platelets fixed with formaldehyde
T2 sequence (P04275 764-2813 limits assumed): as above
Method: as §1, §2, §3

## KQGVDVKAMTSNVAS
vWF-GPIb interaction [1]
  IC50: ≤ 500 µM

## EEDTE [EEDTE]
vWF-GPIb interaction [1]
  IC50: > 500 µM

## PPDLPKDTTILHLSE
vWF-GPIb interaction [1]
  IC50: ≤ 500 µM

## KRKRKRKRKR [(KR)5]
vWF-GPIb interaction [2]
  IC50: 1.7 µM
vWF-GPIb interaction [3]
  IC50: 13 µM

## GDTDLYDYYPEEDTE [peptide 25]
GPIb-IX
  IC50: 530 µM
vWF-GPIb interaction [1]
  IC50: ≤ 500 µM
GPIb-IX (Homo sapiens)
  IC50: 420 µM

## PGLLTPTPKLEKLSL
vWF-GPIb interaction [1]
  IC50: ≤ 500 µM

## PPDLPKDTT
vWF-GPIb interaction [1]
  IC50: > 500 µM

## KRKRKRKRKRKRKR [(KR)7]
vWF-GPIb interaction [3]
  IC50: 9 µM

## DKRNLTALPPDLPKDTT
vWF-GPIb interaction [1]
  IC50: ≤ 500 µM

## EEDTEGDKVRATRTV
vWF-GPIb interaction [1]
  IC50: ≤ 500 µM

## NLTALPPDLPKDTTI
vWF-GPIb interaction [1]
  IC50: ≤ 500 µM
